Assay results reported in article PMC9822050, “Antiviral Activities of Ethyl Pheophorbides a and b Isolated from Aster pseudoglehnii against Influenza Viruses” (Molecules, 2022).
≈ marks a conversion by molar mass, not a printed value.

Key:
IAV [1] = test: Western blot analysis of IAV HA protein level after time-of-drug-addition treatment; type: cell-based, influenza A virus (PR8-GFP)
IAV [2] = test: Time-of-drug-addition assay, viral RNA transcript levels via qRT-PCR; type: cell-based, influenza A virus (PR8-GFP)
MDCK cells = test: Cytotoxicity / MTT assay; type: cell-based, canine; conditions: 48 h, up to a concentration of 10 µg/mL
Method: To clarify whether the inhibitory activities of ethyl pheophorbides a and b are mediated through cytotoxicity, MDCK cells were treated with different concentrations of each compound and cell viability was determined after 48 h via the MTT assay (Figure S7).
After a 4 h period, tetrazolium crystals were dissolved with DMSO and absorbance was measured at 560 nm.

HA2 = HA2 (Influenza A virus, UniProt P03452); test: Hemolysis inhibition assay with chicken red blood cells; conditions: IAV treated with 1 µg/mL, cRBC 2%, pH 5.2
HA2, sequence (P03452 344-565 limits assumed): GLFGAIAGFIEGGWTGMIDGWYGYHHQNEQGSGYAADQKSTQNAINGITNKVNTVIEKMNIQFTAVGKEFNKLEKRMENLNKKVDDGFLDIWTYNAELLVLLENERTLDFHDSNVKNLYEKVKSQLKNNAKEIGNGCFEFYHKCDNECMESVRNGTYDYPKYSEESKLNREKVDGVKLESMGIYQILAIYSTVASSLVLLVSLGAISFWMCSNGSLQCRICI
HA2, sequence (P03452 18-343 partner limits assumed): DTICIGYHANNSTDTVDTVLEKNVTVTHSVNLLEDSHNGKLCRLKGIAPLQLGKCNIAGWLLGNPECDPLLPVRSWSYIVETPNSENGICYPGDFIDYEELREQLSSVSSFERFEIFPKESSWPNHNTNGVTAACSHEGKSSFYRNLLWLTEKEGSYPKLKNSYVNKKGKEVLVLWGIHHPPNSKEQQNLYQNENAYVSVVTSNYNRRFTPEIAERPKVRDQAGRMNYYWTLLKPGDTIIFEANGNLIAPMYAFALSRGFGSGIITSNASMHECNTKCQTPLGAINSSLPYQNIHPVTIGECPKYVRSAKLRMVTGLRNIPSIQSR

IBV = test: Plaque reduction assay, IBV; conditions: Influenza B virus, MDCK, read-out: 50% inhibitory concentration (IC50) for IBV, virus pre-treated 1 h at room temperature, MDCK cells, MOI 0.001, plaque assay 48 h after infection
HA1 = HA1 (Influenza A virus, UniProt P03452); test: Hemagglutination inhibition assay with chicken red blood cells; conditions: IAV treated with 1 µg/mL, cRBC 0.5%
HA1, sequence (P03452 18-343 limits assumed): as the sequence (P03452 18-343 partner limits assumed) above
HA1, sequence (P03452 344-565 partner limits assumed): as the sequence (P03452 344-565 limits assumed) above

IAV [3] = test: Plaque reduction assay, IAV; type: cell-based, influenza A virus (PR8-GFP); conditions: Influenza A virus, MDCK, virus pre-treated 1 h at room temperature, MDCK cells, MOI 0.01, plaque assay 48 h after infection; read-out: 50% inhibitory concentration (IC50) for IAV
Method: All experiments were performed in triplicate.

adenovirus = test: Adenovirus plaque assay; conditions: virus pre-treated 1 h at room temperature, 293A cells
IAV NA = IAV NA (Influenza A virus, UniProt P03468); type: biochemical
IAV NA, sequence (P03468 whole entry, looked up): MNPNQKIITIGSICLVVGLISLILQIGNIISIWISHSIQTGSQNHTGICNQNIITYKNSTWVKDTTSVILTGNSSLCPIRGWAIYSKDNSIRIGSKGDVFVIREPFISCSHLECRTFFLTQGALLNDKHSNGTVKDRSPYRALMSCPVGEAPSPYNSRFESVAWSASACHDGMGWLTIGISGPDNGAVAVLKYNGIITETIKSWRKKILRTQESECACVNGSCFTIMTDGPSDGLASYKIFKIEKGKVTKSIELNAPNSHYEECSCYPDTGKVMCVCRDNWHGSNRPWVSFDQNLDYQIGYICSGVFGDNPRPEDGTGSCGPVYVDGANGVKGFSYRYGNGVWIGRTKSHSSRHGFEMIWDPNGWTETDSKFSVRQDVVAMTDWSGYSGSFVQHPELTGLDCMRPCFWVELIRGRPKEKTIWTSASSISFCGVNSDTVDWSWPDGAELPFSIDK

SMILES: NC12CC3CC(CC(C3)C1)C2 [Amantadine, reference compound]
- IAV HA protein level (IAV [1]; treatment during adsorption, 1 mM, western blot): marked downregulation
- IAV replication (viral RNA transcript level) (IAV [2]; treatment during virus adsorption to host cells, 1 mM): marked decrease

SMILES: C=CC1=C(C)c2cc3[nH]c(c4c5nc(cc6[nH]c(cc1n2)c(C)c6CC)C(C)=C5C(=O)C4C(=O)OC)C(CCC(=O)OCC)C3C (centres unmarked) [ethyl pheophorbide a]
- cell viability (MTT) (MDCK cells): no adverse effects on cell viability
- hemolysis inhibition (HA2 function) (HA2): no effect
- IC50 (IBV): 1.62 ± 0.86 µg/mL (≈ 2.61 µM)
- hemagglutination inhibition (HA1 function) (HA1): no effect
- IC50 (IAV [3]): 0.086 ± 0.072 µg/mL (≈ 0.139 µM)
- effect against non-enveloped adenovirus (adenovirus): no effect
- expression of IAV HA protein (IAV [1]): significantly suppressed
- IAV transcript levels (IAV [2]): significantly reduced
- effect on IAV NA activity (IAV NA): no effects

SMILES: C=CC1=C(C)c2cc3[nH]c(c4c5nc(cc6[nH]c(cc1n2)c(C=O)c6CC)C(C)=C5C(=O)C4C(=O)OCC)C(CCC(=O)O)C3C (centres unmarked) [ethyl pheophorbide b]
- cell viability (MTT) (MDCK cells): no adverse effects on cell viability
- hemolysis inhibition (HA2 function) (HA2): no effect
- IC50 (IBV): 3.17 ± 0.94 µg/mL (≈ 5.11 µM)
- hemagglutination inhibition (HA1 function) (HA1): no effect
- IC50 (IAV [3]): 0.094 ± 0.058 µg/mL (≈ 0.151 µM)
- effect against non-enveloped adenovirus (adenovirus): no effect
- expression of IAV HA protein (IAV [1]): significantly suppressed
- IAV transcript levels (IAV [2]): significantly reduced
- effect on IAV NA activity (IAV NA): no effects
